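1) Cells in 96-well plates. 2) Compound, 48 h, 5 concentrations. 3) Linear interpolation between surrounding doses. 4) Unreached endpoint = highest concentration. GI50 = concentration required for 50% inhibition of growth.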 Active and inactive are the calls of the source. Cut-off read from the data, not from the text of the source: active = GI50 up to about 1.1 µM and inactive = higher. Bounds are passed on as bounds.

The values below come from ChEMBL document CHEMBL1201862, “PubChem BioAssay data set” (2004).

Some test systems named below: CAKI-1; EKVX; HCC 2998; HCT-15; HT-29; IGROV-1; K562; LOX IMVI; M14; MOLT-4; NCI-H23; SF-268; SK-MEL-28; UACC-257; UO-31; SR.
Holding throughout (test): inhibition of tumour cell growth, NCI panel, 48 h

`CCOc1ccc(/N=C/c2c3ccccc3nc3ccccc23)cc1`: the GI50 in the test on CAKI-1 is 58.2 µM (inactive); in the test with EKVX, 95.3 µM (inactive); with HCC 2998, > 100 µM (inactive); in the test on HCT-15, 25.1 µM; in the test on HT-29, 21.8 µM (inactive); in the test on IGROV-1 it was > 100 µM (inactive). In addition, the GI50 in the test with K562 was 4.48 µM (inactive); in the test with LOX IMVI, 40.1 µM (inactive); in the test with M14 it was 55.2 µM (inactive); in the test on MOLT-4 it was 4.25 µM (inactive); with NCI-H23 it was 54 µM (inactive); in the test on SF-268, 71 µM (inactive). For the same compound, the results for the GI50 in the test on SK-MEL-28, with UACC-257 and in the test with UO-31 were > 100 µM (inactive), 55.1 µM (inactive) and 98.6 µM (inactive), respectively.
With `CCCCCN(CCCCC)C(=O)[C@H](CCC(=O)O)NC(=O)c1cc2ccccc2[nH]1`, the GI50 was 51.9 µM (inactive) in the test on CAKI-1; > 100 µM (inactive) with EKVX; 33.4 µM (inactive) in the test with HCC 2998; 54.8 µM with HCT-15; 59.6 µM (inactive) in the test on HT-29; 45.4 µM (inactive) in the test with IGROV-1. The GI50 with K562 is 34.8 µM (inactive); in the test on LOX IMVI, > 100 µM (inactive); in the test on M14, 59.7 µM (inactive); in the test with MOLT-4, 24.9 µM (inactive); with NCI-H23, 28.2 µM (inactive); in the test with SF-268 it was 33.9 µM (inactive). The GI50 in the test with SK-MEL-28 is 29.8 µM (inactive); with UACC-257 it was > 100 µM (inactive); in the test with UO-31, 31 µM (inactive).
In the case of `CCCc1nc(NC#N)nc(C(=O)Nc2ccccc2)c1CC`, the GI50 was > 100 µM (inactive) with CAKI-1; > 100 µM (inactive) in the test with EKVX; > 100 µM (inactive) in the test on HCC 2998; greater than 100 µM with HCT-15; > 100 µM (inactive) in the test on HT-29; > 100 µM (inactive) in the test with IGROV-1. The GI50 with K562, in the test with LOX IMVI, in the test on M14, with MOLT-4, with NCI-H23 and in the test with SF-268 was > 100 µM (inactive) in each case. The GI50 in the test on SK-MEL-28, in the test with UACC-257 and in the test on UO-31 was > 100 µM (inactive) in each case.
As for `CC1=C(C(=O)Nc2ccc(Cl)c(Cl)c2)C(c2ccco2)C(C(=O)Nc2ccc(Cl)c(Cl)c2)=C(C)N1`, the GI50 with CAKI-1 was 14 µM (inactive); in the test with EKVX, 14.9 µM (inactive); with HCC 2998, 11.5 µM (inactive); with HCT-15 it was 11.5 µM; in the test with HT-29, 14.4 µM (inactive); with IGROV-1, 14.3 µM (inactive). Besides, the GI50 is 7.06 µM (inactive) in the test with K562; 6.14 µM (inactive) in the test with M14; 4.98 µM (inactive) with MOLT-4; 17.8 µM (inactive) in the test on NCI-H23; 11.4 µM (inactive) with SF-268; 11.7 µM (inactive) with SK-MEL-28. Also, the GI50 was 10.6 µM (inactive) in the test on SR, 14.7 µM (inactive) in the test with UACC-257 and 10.1 µM (inactive) with UO-31.
Take `C#CCOCn1cnc2c(S)ncnc21`: the GI50 in the test on CAKI-1 was > 100 µM (inactive); in the test on EKVX, > 100 µM (inactive); in the test on HCC 2998 it was > 100 µM (inactive); in the test on HCT-15, greater than 100 µM; in the test with HT-29, > 100 µM (inactive); in the test on IGROV-1 it was > 100 µM (inactive). The GI50 in the test on K562, in the test with LOX IMVI, in the test with M14, with NCI-H23, in the test on SF-268 and with SK-MEL-28 was > 100 µM (inactive) throughout. Besides, the GI50 in the test on UACC-257 and in the test with UO-31 was > 100 µM (inactive) throughout.
As for `Nc1ccc(/C=C/c2ccnc3ccccc23)cc1`, the GI50 with CAKI-1 was 21.9 µM (inactive); with HCC 2998, 28.4 µM (inactive); in the test on HCT-15, 21 µM; in the test with HT-29, 23.4 µM (inactive); in the test on IGROV-1, 28.2 µM (inactive); in the test with K562 it was 12.7 µM (inactive). Moreover, the GI50 in the test with M14 is 20.2 µM (inactive); in the test with MOLT-4 it was 7.76 µM (inactive); in the test with NCI-H23, 20 µM (inactive); in the test with SF-268, 16.5 µM (inactive); in the test on SK-MEL-28, 32.4 µM (inactive); in the test with SR, 2.84 µM (inactive). The GI50 was 22.2 µM (inactive) with UACC-257 and 16.5 µM (inactive) with UO-31.
Turning to `C/C(=N\O)C(CN1CCCCC1)C(c1ccccc1)c1c(O)c2ccccc2oc1=O` (stereo not drawn), the GI50 is > 100 µM (inactive) in the test on CAKI-1; > 100 µM (inactive) in the test with EKVX; > 100 µM (inactive) in the test on HCC 2998; > 100 µM (inactive) in the test with HT-29; > 100 µM (inactive) in the test with IGROV-1; > 10 µM (inactive) in the test on K562. For the same compound, the GI50 with LOX IMVI, in the test with M14, with NCI-H23, in the test with SF-268, with SK-MEL-28 and with UACC-257 was > 100 µM (inactive) in each case.
Consider `c1ccc(COc2cccc3cccnc23)cc1`, for which the GI50 was 83.9 µM (inactive) with EKVX; > 100 µM (inactive) in the test with HCC 2998; 80.9 µM (inactive) with HT-29; 85.7 µM (inactive) with IGROV-1; 55 µM (inactive) with K562; 54.5 µM (inactive) in the test with LOX IMVI. Also, the GI50 in the test on M14 was > 100 µM (inactive); in the test on MOLT-4 it was > 100 µM (inactive); in the test on NCI-H23, 44 µM (inactive); in the test on SF-268, 28.4 µM (inactive); with SK-MEL-28, > 100 µM (inactive); in the test with UACC-257, > 100 µM (inactive). The GI50 with UO-31 was 56.9 µM (inactive).
For the compound `CC1=NN(C(=O)CC(=O)NC(=O)CC(=O)Nc2ccccc2F)C(=O)C1/N=N/c1ccc([N+](=O)[O-])cc1` (stereo not drawn), the GI50 with CAKI-1 is 63.1 µM (inactive); with EKVX it was 35.1 µM (inactive); with HCC 2998, 71.6 µM (inactive); in the test with HCT-15, 33.7 µM; in the test with HT-29, 19.8 µM (inactive); with IGROV-1, 52 µM (inactive). For the same compound, the GI50 in the test on K562 was 28.1 µM (inactive); in the test with LOX IMVI it was 19.6 µM (inactive); with M14, 57.4 µM (inactive); with MOLT-4, 39.3 µM (inactive); in the test with NCI-H23, 51.9 µM (inactive); in the test with SF-268, 82.2 µM (inactive). In addition, the GI50 in the test with SK-MEL-28 is > 100 µM (inactive); with UACC-257 it was 29.6 µM (inactive); with UO-31, 26.7 µM (inactive).
As to `Nc1cc2c(C3OC(CO)C(O)C3O)n[nH]c2c(=S)[nH]1` (stereo not drawn), the GI50 in the test with CAKI-1 is 54.3 µM (inactive); with EKVX, > 100 µM (inactive); with HCC 2998, > 100 µM (inactive); in the test on HCT-15 it was 94 µM; in the test with HT-29, > 100 µM (inactive); in the test with IGROV-1, > 100 µM (inactive). Moreover, the GI50 with K562, in the test with M14, in the test with MOLT-4, in the test on NCI-H23, with SF-268 and in the test on SK-MEL-28 was > 100 µM (inactive) in each case. For the same compound, the GI50 with SR, with UACC-257 and in the test on UO-31 was > 100 µM (inactive) throughout.
